Results from ChEMBL document CHEMBL1129197, “A rapid synthesis of some 5-amino- nucleosides and nucleotides as potential antiviral compounds” (Bioorg Med Chem Lett, 1996).

Assays:
C8166 [1] = experiment: Concentration which reduces the viability of uninfected C8166 cells by 50%; format: functional; details: Homo sapiens
C8166 [2] = experiment: Compound was evaluated for inhibitory activity against HIV-1 infected C8166 cells.; format: functional, cell-based; details: Homo sapiens
[3] = Ratio of CC50 to EC50 against HIV-1/C8166 cells was evaluated; format: functional

SMILES	CC50 (C8166 [1])	EC50 (C8166 [2])	Selectivity [3]
Cc1cn(C2CC(N=[N+]=[N-])C(CN3C(=O)c4ccccc4C3=O)O2)c(=O)[nH]c1=O (centres undefined)	1000 µM	100 µM	10
Cc1cn(C2CC(N=[N+]=[N-])C(CN)O2)c(=O)[nH]c1=O (centres undefined)	> 1000 µM	40 µM	>25
Cc1cn(C2CC(N=[N+]=[N-])C(CNP(=O)(OCC(Cl)(Cl)Cl)OCC(Cl)(Cl)Cl)O2)c(=O)[nH]c1=O (centres undefined)	100 µM	30 µM	3.3
Cc1cn2c(nc1=O)OC1CC2OC1CN1C(=O)c2ccccc2C1=O (centres undefined)	> 1000 µM	400 µM	>2.5
Cc1cn([C@H]2C[C@H](N=[N+]=[N-])[C@@H](CO)O2)c(=O)[nH]c1=O [ZIDOVUDINE]	> 1000 µM		62500
